From US20240018102A1, “COMPOUNDS AND COMPOSITIONS FOR TREATING CONDITIONS ASSOCIATED WITH LPA RECEPTOR ACTIVITY” (Lhotse Bio, Inc., priority 2020, published 2024) come the findings set out here.

Each structure is given as a SMILES string. pIC50: −log10 of the molar value. Where only a bound is given, the exact number is not on record here.

T1 sequence (Q92633 whole entry): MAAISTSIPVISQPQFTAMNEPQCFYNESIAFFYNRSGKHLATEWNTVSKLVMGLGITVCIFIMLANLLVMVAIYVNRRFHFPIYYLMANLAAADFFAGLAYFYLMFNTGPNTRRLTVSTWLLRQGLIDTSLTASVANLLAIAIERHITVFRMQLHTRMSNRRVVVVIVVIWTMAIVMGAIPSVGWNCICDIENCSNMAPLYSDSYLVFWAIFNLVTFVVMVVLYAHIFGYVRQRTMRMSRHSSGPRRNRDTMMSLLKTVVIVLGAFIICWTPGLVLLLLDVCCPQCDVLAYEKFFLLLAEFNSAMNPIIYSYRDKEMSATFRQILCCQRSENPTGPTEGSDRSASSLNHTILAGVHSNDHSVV

The assay addresses T1, human LPA1 (Homo sapiens, UniProt Q92633).
T1 construct: expressed in transfected cells; host or cells: CHO-K1
As to the kind of experiment: In vitro LPA1 functional antagonist assay (calcium mobilization, FLIPR). Conditions: CHO-K1 cells overexpressing human LPA1; Oleoyl LPA challenge; calcium mobilization on FLIPR Tetra. Format: cell-based. The procedure: In Vitro LPA1 Functional Antagonist Assay
CHO-K1 cells overexpressing human LPA1 were seeded in a total volume of 20 μL into black-walled, clear-bottom, Poly-D-lysine coated 384-well microplates and incubated at 37° C. for the appropriate time prior to testing. Assays were performed in 1× Dye Loading Buffer consisting of 1× Dye, 1× Additive A and 2.5 mM Probenecid in HBSS/20 mM Hepes. Probenicid was prepared fresh. Cells were loaded with dye prior to testing. Media was aspirated from cells and replaced with […] Dye Loading Buffer. Cells were incubated for 30-60 minutes at 37° C. After dye loading, cells were removed from the incubator and 10 μL 3× test compound was added. Cells were incubated for 30 minutes at room temperature in the dark to equilibrate plate temperature followed by Oleoyl LPA challenge at the 0.018 M. Compound antagonist activity was measured on a FLIPR Tetra (MDS). Calcium mobilization was monitored for 2 minutes and 10 μL Oleoyl LPA in HBSS/20 mM Hepes was added to the cells 5 seconds into the assay. Compound activity was analyzed using CBIS data analysis suite (ChemInnovation, CA). Percentage inhibition is calculated using the following formula:
% Inhibition=100%×(1−(mean RFU of test sample−mean RFU of vehicle control)/(mean RFU of LPA control−mean RFU of vehicle control)).
On the technique in general: A change in cytosolic calcium serves as a functional read-out for many receptors and channels.
The term pIC50 denotes −log10 of the IC50, conventionally taken in molar units. As to `COc1cc([C@@H](O)[C@H](Cc2nc(CC(=O)O)cs2)OC2Cc3ccccc3C2)cc(OC)c1C` [Compound 129a, 2-(2-((2S,3R)-2-((2,3-dihydro-1H-inden-2-yl)oxy)-3-(3,5-dimethoxy-4-methylphenyl)-3-hydroxypropyl)thiazol-4-yl)acetic acid], the pIC50 was 8.47. Then `O=C(O)c1cccc2cn(C[C@H](OC3CCCC3)[C@H](O)c3ccc(C(F)F)cc3)nc12` [Compound 128a], with 6.68. With `COc1cc([C@@H](O)[C@H](Cc2ccn(CC(=O)O)n2)OC2CCCC2)cc(OC)c1C` [Compound 116a], the negative-log IC50 (pIC50) is 5.83. As for `CCOc1cc([C@@H](O)[C@H](Cn2cc3cccc(C(=O)O)c3n2)OC2CCCC2)ccc1C` [Compound 141], the figure is 6.71; as for `COC(=O)c1cn(C[C@H](OCC2CCC2)[C@H](O)c2cc(OC)c(C)c(OC)c2)cc1CC(=O)O` [Compound 117a], 7.21; as for `COC(=O)c1cn(C[C@H](OCCc2ccccc2)[C@@H](O)c2cc(OC)c(C)c(OC)c2)cc1CC(=O)O` [Compound 132], 5.81. As for `O=C(O)c1cccc2cn(C[C@H](OC3CCCC3)[C@@H](O)c3ccccc3)nc12` [Compound 137], the figure is less than 5.00; as for `O=C(O)c1cccc2cn(C[C@H](OC3CCCC3)[C@H](O)c3ccccc3)nc12` [Compound 136], less than 5.00; as for `COc1cc([C@@H](O)[C@H](Cn2cc3cccc(C(=O)O)c3n2)OCC2CCC2)cc(OC)c1C` [Compound 118a, 2-((2S,3R)-2-(cyclobutylmethoxy)-3-(3,5-dimethoxy-4-methylphenyl)-3-hydroxypropyl)-2H-indazole-7-carboxylic acid], 7.58. As for `COc1cc([C@@H](O)[C@H](Cc2nc(CC(=O)O)cs2)OC2CCCC2)cc(OC)c1C` [Compound 112a, 2-(2-((2S,3R)-2-(cyclopentyloxy)-3-(3,5-dimethoxy-4-methylphenyl)-3-hydroxypropyl)thiazol-4-yl)acetic acid], the figure is 7.25; as for `COc1cc([C@@H](O)[C@H](Cn2cc3cccc(C(=O)O)c3n2)OC(C)C)cc(OC)c1C` [Compound 145], 7.14; as for `COc1cc([C@@H](O)[C@H](Cn2cc3cccc(C(=O)O)c3n2)OC2CCCCC2)cc(OC)c1C` [Compound 140], 7.93. For the molecule `COc1cc([C@H](O)[C@H](Cn2cc3cccc(C(=O)O)c3n2)OCCc2ccccc2)cc(OC)c1C` [Compound 105b, 2-((2S,3S)-3-(3,5-dimethoxy-4-methylphenyl)-3-hydroxy-2-phenethoxypropyl)-2H-indazole-7-carboxylic acid], the pIC50 was 7.31. For the molecule `COc1cc([C@@H](O)[C@H](Cc2nc(CC(=O)O)cs2)OCC2CCC2)cc(OC)c1C` [Compound 122a], the pIC50 was 5.84. Then `COc1cc([C@@H](O)[C@H](Cc2nc3cc(C(=O)O)ccc3n2C)OCC2CCC2)cc(OC)c1C` [Compound 119a, 2-[(2S,3R)-2-(cyclobutylmethoxy)-3-(3,5-dimethoxy-4-methyl-phenyl)-3-hydroxy-propyl]-1-methyl-benzimidazole-5-carboxylic acid], with less than 5.00; and `COc1cc(C(O)C(Cn2ncc3cccc(C(=O)O)c32)OCCc2ccccc2)cc(OC)c1C` (stereo not drawn) [Compound 107, 1-(3-(3,5-dimethoxy-4-methylphenyl)-3-hydroxy-2-phenethoxypropyl)-1H-indazole-7-carboxylic acid], with less than 5.00; and `COc1cc([C@@H](O)[C@H](Cn2cc3cccc(C(=O)O)c3n2)OC2Cc3ccccc3C2)cc(OC)c1C` [Compound 113a, 2-((2S, 3R)-2-((2,3-dihydro-1H-inden-2-yl)oxy)-3-(3,5-dimethoxy-4-methylphenyl)-3-hydroxypropyl)-2H-indazole-7-carboxylic acid], with 8.43. As for `COc1cc([C@@H](O)[C@H](Cc2nc3cc(CC(=O)O)ccc3[nH]2)OC2CCCC2)cc(OC)c1C` [Compound 111a, 2-(2-((2S,3R)-2-(cyclopentyloxy)-3-(3,5-dimethoxy-4-methylphenyl)-3-hydroxypropyl)-1H-benzo[d]imidazol-5-yl)acetic acid], the figure is less than 5.00.
